Paper PMC10368370, “Development of o-aminobenzamide salt derivatives for improving water solubility and anti-undifferentiated gastric cancer” (Frontiers in Pharmacology, 2023)

Legend:
HCT-116 = assay: MTT cytotoxicity / anti-proliferation assay; assay type: cell-based; conditions: HCT-116, MTT, 72 h; read-out: IC50, cancer cell viability
[1] = Solubility in aqueous solution (pure water, normal saline); assay type: physicochemical
Pharmacokinetic study = assay type: in vivo, SD rats
Protocol: 7–8-week Male SD rats weighing 180–220 g were allowed for this experiment. The rats were fasted 12 h except for water. The solution was administered to rats by intravenous injection of 10% ethanol +10% solutol as solvent and intragastric injection of 5% castor oil +5% solutol as solvent. The dose concentration was 8 mg/mL for intravenous injection and 10 mg/mL for gavage.
Twelve male SD rats were divided into 4 groups with 3 rats in each group. Group 1 was F8-intravenous injection group, the dose was 20 mg/kg; Group 2 was F8- intragastric administration group, the dose was 100 mg/kg; Group 3 was F8·2HCl-intragastric administration group, the dose was 100 mg/kg. Blank blood was collected before administration, and blood was collected at predetermined time points after administration:
Intravenous injection group: before administration, 2 min, 5 min, 15 min, 30 min, 1 h, 2 h, 4 h, 8 h, 12 h, 24 h. Intragastric administration group: Before administration, 5 min, 15 min, 30 min, 1 h, 2 h, 4 h, 6 h, 8 h, 12 h, 24 h. About 0.5 mL of blood was collected and placed in an EDTA-K2 tube at […]. The plasma was centrifuged and stored at −80°C. The samples were detected by liquid-mass spectrometry analysis system. The chromatographic column used was ODS-C18 (4.6 × 50 mm, 3 µm). The chromatographic conditions were as follows: Mobile phase A is aqueous phase, […] (including 0.1% formic acid); Mobile phase B is organic, 95% acetonitrile (containing 0.1% formic acid). Flow rate of 0.4 mL/min, column temperature: room temperature, according to the drug plasma concentration data, calculated pharmacokinetic parameters using DAS 2.0 software.
After oral administration, drugs need to go through four stages, namely, absorption, distribution, metabolism and excretion. However, the changes in solubility of drugs after salting only affect the absorption stage. Since absorption is accompanied by a dissolution process, the water solubility and dissolution rate of drugs are the main factors that determine their absorption, and then affect their oral bioavailability ([Elder et al., 2013]). Under the stimulation of cell activity and increased solubility, pharmacokinetic experiments were carried out to understand the drug exposure and provide a basis for further druggability of compound F8. In this study, compound F8 and F8·2HCl were administered in two different ways: tail vein injection (20 mg/kg) and gavage (100 mg/kg), and pharmacokinetic parameters were measured in Sprague-Dawley (SD) rats (Figures 3, 4).

[2] = SD rats, 100 mg/kg, route ip (methods: intragastric), 100 mg/kg
[3] = SD rats, oral administration 100 mg/kg, 100 mg/kg

With O=C(NCc1ccc(NC(=O)c2cc(F)ccc2N2CCCC2)cc1)OCc1cccnc1 [F8·2HCl] the IC50 (HCT-116) was 4.02 ± 0.28 µM, the “water solubility relative to compound F8” value ([1]; F8·2HCl vs F8) was “more than 50 times” and the “solubility in normal saline” value ([1]; normal saline, compared with pure water) was “not much different from pure water”. The “Solubility in aqueous solution” value ([1]; pure water) was “more than 50 mg/mL”, the “AUC (0-∞)” value (Pharmacokinetic study; [2]) was 1770 ng·h/mL and the Cmax (Pharmacokinetic study; [2]) was 580 ng/mL. It also gave a T1/2 (Pharmacokinetic study; [2]) of 3.63 h, a Tmax (Pharmacokinetic study; [2]) of 1.42 h and a bioavailability (Pharmacokinetic study; SD rats, oral 100 mg/kg vs iv 20 mg/kg) of 5.06%. The area under the concentration-time curve (AUC0-t) (Pharmacokinetic study; [3]) was 1770 ng·h/mL, the peak plasma concentration (Pharmacokinetic study; [3]) was 0.58 µg/mL and the half-life extension relative to F8 (Pharmacokinetic study; male, Sprague-Dawley, rat, plasma, po, 100 mg/kg, same oral dose, F8·2HCl vs F8) was 1 h. For the same compound, the “increase of Tmax relative to F8” value (Pharmacokinetic study; same oral dose, F8·2HCl vs F8) was ~10 times.
